Laboratory results reported in article PMC9494746 (Biochemistry, 2022).
Where two headings read alike, the source gives them in different places. Blank lines part the entries; values can stand above or below the compound they belong to.

Legend:
SET/WRAD2 complex [1] = target: T1, SET/WRAD2 complex (Homo sapiens, UniProt O14686); assay: Product and dead-end inhibitor studies, MTase-Glo; assay type: biochemical; set-up: key to inhibition pattern: C = competitive; NC = noncompetitive; UC = uncompetitive
T1 construct: expressing amino acids 5308-5537 of the hKMT2D catalytic SET domain; 6xHis + TEV site (N, cleaved yes); made in house; host or cells: KMT2D Win-SET: Sf21 (baculovirus); H3 peptides bought from Chinese Peptide Company
Method: (§1) SET domain activity was monitored with a quantitative endpoint assay determining AdoHcy production using MTase-Glo by Promega.[39] Assays were performed as time courses at room temperature with buffer constituents, 50 mM Tris, pH 7.5, 50 mM NaCl, 1 mM DTT, 1% DMSO, and 0.005% w/v Triton X-100 in deionized water. […] Addition of 1 μL of 0.5% v/v TFA was used to stop the methylation reaction at defined time points; 1 μL of 6× concentrated MTase-Glo reagent was added to each well and incubated at room temperature. After 30 min, 6 μL of the prefiltered MTase-Glo detection reagent was added and incubated for a further 30 min at room temperature. Luminescence was measured using an Envision 2101 Multilabel plate reader, and product concentrations were calculated using an AdoHcy standard curve. Steady-state rates were obtained by plotting AdoHcy production over time and normalized to SET domain concentration. Experiments were performed in triplicate and expressed as the mean ± SD. Data were analyzed using nonlinear regression in GraphPad Prism v9.1.
Steady-state rates were measured in substrate-inhibitor matrix experiments. Dead-end inhibitor experiments were performed with the second substrate fixed at KM, while product inhibitor experiments fixed the second substrate at KM or 20× KM. Assays using 20× KM AdoMet used a cofactor adjusted to pH 7.5. […] Steady-state rates were globally fitted to competitive, uncompetitive, and noncompetitive inhibition (eqs 6, 7, and 8, respectively).
Competitive inhibition [drawing 6] 6 Uncompetitive inhibition [drawing 7] 7 Noncompetitive inhibition [drawing 8] 8 Mixed inhibition [drawing 9] 9 where ν is the initial rate, Vmax is the maximum velocity of the uninhibited reaction, [S] is the substrate concentration of the varied substrate, [I] is the inhibitor concentration, KM is the Michaelis–Menten constant, and Ki is the inhibition constant. To resolve any ambiguities in assigning inhibition type, the mixed inhibition model was used (eq 9), to derive the value of α, which is a measure of competitive or uncompetitive nature.

hKMT2D SET domain = target: T2, hKMT2D SET domain (Homo sapiens, UniProt O14686); assay: WRAD2 titration: MTase-Glo steady-state substrate matrix experiments; assay type: biochemical; settings: eq 1, read-out: Kd^(AdoMet)
T2 construct: expressing amino acids 5308-5537 of the hKMT2D catalytic SET domain; 6xHis + TEV site (N, cleaved yes); made in house; host or cells: KMT2D Win-SET: Sf21 (baculovirus); H3 peptides bought from Chinese Peptide Company
Method: as §1
(§2) Steady-state rates were measured in substrate matrix experiments. Data were globally fitted to ternary Bi–Bi and Ping–Pong models to obtain kcat and KM parameters (eqs 1 and 2).
The ternary Bi–Bi model [drawing 1] 1 The Ping–Pong model [drawing 2] 2 where ν is the initial rate, Vmax is the maximum velocity, [A] is the concentration of the varied substrate, [B] the concentration of the fixed substrate, KM^A and KM^B are the Michaelis constants of the varied and fixed substrates, respectively, and Kd is the dissociation constant of the varied substrate. […]

[2] = target: T3, SET/Ash2L/RbBP5 minimal complex (Homo sapiens, UniProt O14686); assay: Substrate matrix experiment with the minimal complex, MTase-Glo; assay type: biochemical; settings: read-out: Kd^(AdoMet)
T3 construct: 6xHis + TEV site (N); made in house; RbBP5 peptide synthetic, Chinese Peptide Company
Method: as §1
The ternary Bi–Bi model [drawing 1] 1 The Ping–Pong model [drawing 2] […]

[3] = target: T4, His-SET (5382–5537) + ASH2L (380-496-ISGRGS-539-598) + RbBP5 peptide (Homo sapiens, UniProt O14686); assay: SPR binding assays (steady-state affinity); settings: minimal complex; 1:1 interaction model
T4 construct: made in house; RbBP5 peptide synthetic, Chinese Peptide Company
Method: Surface plasmon resonance experiments were performed using a T200 instrument (Cytiva) equipped with a research-grade NTA sensor S chip (Cytiva) at 20 °C. For immobilization, the instrument was primed with a buffer composed of 10 mM HEPES, pH 7.5, 150 mM NaCl, 0.5 mM TCEP, and 0.05% Tween 20. The NTA chip was conditioned with three 2 min injections of 50 mM NaOH/1 M NaCl and a 2 min injection of 250 mM EDTA. Protein and reference flow cells were then prepared by a 2 min injection of 1 mM NiCl2 and a 7 min injection of 0.2 M EDC/ 0.05 M NHS. Immediately, the protein (500 nM His-SET (5382–5537) + ASH2L (380-496-ISGRGS-539-598) + RbBP5 peptide in immobilization buffer) was injected over the measurement flow cell to the desired RU level, followed by deactivation with a 7 min injection of 1 M ethanolamine pH 8 of all flow cells. For binding measurements, the system was then primed in a running buffer consisting of 50 mM Tris pH 7.5, 150 mM NaCl, 1 mM TCEP, 1–2% DMSO, and 0.05% Tween 20. […] Data processing included solvent correction and blank subtraction. The steady-state data were analyzed using Biaevaluation/Insight Software 1.1 (GE Healthcare/Cytiva) using an implemented 1:1 interaction model.

SET/WRAD2 complex [4] = target: T1, SET/WRAD2 complex; assay: Steady-state substrate specificity (peptide and nucleosome substrates), MTase-Glo; assay type: biochemical
Method: as §1, §2
Target sequence in this assay (Q15291 whole entry, the tested form may be a part): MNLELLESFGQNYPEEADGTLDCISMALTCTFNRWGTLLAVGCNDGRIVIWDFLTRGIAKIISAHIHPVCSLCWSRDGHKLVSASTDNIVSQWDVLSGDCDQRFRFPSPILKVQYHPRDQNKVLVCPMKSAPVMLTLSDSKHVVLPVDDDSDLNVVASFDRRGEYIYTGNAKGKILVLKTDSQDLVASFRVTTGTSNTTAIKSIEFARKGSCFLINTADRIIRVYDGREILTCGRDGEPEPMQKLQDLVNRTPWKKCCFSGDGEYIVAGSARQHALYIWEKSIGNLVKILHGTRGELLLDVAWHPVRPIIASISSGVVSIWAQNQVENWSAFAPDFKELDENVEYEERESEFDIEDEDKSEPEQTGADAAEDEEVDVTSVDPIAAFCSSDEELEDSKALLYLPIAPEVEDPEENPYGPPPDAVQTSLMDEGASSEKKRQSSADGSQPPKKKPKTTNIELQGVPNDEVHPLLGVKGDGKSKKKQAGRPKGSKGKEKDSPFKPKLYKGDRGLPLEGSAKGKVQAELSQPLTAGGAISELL
Target sequence in this assay (Q9UBL3 95-628, further chain): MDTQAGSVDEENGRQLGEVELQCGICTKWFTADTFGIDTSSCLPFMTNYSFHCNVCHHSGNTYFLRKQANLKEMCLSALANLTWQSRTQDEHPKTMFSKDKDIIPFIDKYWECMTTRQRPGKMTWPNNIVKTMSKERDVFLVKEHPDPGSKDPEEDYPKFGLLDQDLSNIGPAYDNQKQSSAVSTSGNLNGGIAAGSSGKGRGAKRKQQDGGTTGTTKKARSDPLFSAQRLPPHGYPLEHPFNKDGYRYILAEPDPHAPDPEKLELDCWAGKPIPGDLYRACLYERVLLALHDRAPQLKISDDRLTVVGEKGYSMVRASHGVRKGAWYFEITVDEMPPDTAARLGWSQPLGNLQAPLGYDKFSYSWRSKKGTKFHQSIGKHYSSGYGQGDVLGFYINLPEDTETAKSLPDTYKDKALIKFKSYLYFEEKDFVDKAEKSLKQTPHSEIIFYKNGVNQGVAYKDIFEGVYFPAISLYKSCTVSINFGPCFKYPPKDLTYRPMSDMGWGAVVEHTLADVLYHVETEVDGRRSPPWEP
Target sequence in this assay (Q9C005 whole entry, further chain, the tested form may be a part): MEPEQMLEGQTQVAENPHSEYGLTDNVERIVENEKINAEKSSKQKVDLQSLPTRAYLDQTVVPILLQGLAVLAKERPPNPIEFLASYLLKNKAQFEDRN
Target sequence in this assay (O14686 5361-5537): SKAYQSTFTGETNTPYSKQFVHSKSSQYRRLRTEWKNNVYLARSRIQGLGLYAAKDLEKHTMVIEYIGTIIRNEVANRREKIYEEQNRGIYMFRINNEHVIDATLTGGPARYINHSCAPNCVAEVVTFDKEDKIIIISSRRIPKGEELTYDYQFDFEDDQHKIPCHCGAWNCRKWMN
The ternary Bi–Bi model [drawing 1] 1 The Ping–Pong model [drawing 2] 2 where ν is the initial rate, Vmax is the maximum velocity, [A] is the concentration of the varied substrate, [B] the concentration of the fixed substrate, KM^A and KM^B are the Michaelis constants of the varied and fixed substrates, respectively, and Kd is the dissociation constant of the varied substrate.

[5] = target: hKMT2D SET domain (Win-SET protein that lost the Win motif by proteolysis) (human) (UniProt O14686)
[6] = target: hKMT2D SET domain (Win-SET protein that lost the Win motif by proteolysis) (human) (UniProt O14686); remark: listed apart in the source
[7] = tested on: C[S+](CC[C@H](N)C(=O)[O-])C[C@H]1O[C@@H](n2cnc3c(N)ncnc32)[C@H](O)[C@@H]1O; assay: purified protein, by the assay type; assay type: biochemical, human; settings: pH 7.5
[8] = tested on: C[S+](CC[C@H](N)C(=O)[O-])C[C@H]1O[C@@H](n2cnc3c(N)ncnc32)[C@H](O)[C@@H]1O; assay: Steady-state substrate specificity (peptide and nucleosome substrates), MTase-Glo; assay type: biochemical, human; settings: other: WRAD2, eq 1, pH 7.5
[9] = varied substrate AdoMet, fixed substrate at 20× KM
[10] = varied substrate AdoMet, fixed substrate at KM
[11] = varied substrate H3_1–21, fixed substrate at KM

Sequence of hKMT2D SET domain (Win-SET protein that lost the Win motif by proteolysis) (human) (O14686 5362-5537): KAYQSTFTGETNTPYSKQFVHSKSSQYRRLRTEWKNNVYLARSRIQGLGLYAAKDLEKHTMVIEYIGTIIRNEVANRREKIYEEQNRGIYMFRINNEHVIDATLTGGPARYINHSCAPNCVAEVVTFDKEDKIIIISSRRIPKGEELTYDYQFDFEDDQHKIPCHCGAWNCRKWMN
T2 sequence (Q9UBL3 95-628): as the sequence (Q9UBL3 95-628, further chain) above
T2 sequence (Q9C005 whole entry, further chain, the tested form may be a part): as the sequence (Q9C005 whole entry, further chain, the tested form may be a part) above
T2 sequence (O14686 5361-5537): as the sequence (O14686 5361-5537) above
T2 sequence (Q15291 whole entry, further chain, the tested form may be a part): as the sequence (Q15291 whole entry, the tested form may be a part) above
Sequence of Ash2L (absent small or homoeotic 2-like), full length (Q9UBL3 whole entry): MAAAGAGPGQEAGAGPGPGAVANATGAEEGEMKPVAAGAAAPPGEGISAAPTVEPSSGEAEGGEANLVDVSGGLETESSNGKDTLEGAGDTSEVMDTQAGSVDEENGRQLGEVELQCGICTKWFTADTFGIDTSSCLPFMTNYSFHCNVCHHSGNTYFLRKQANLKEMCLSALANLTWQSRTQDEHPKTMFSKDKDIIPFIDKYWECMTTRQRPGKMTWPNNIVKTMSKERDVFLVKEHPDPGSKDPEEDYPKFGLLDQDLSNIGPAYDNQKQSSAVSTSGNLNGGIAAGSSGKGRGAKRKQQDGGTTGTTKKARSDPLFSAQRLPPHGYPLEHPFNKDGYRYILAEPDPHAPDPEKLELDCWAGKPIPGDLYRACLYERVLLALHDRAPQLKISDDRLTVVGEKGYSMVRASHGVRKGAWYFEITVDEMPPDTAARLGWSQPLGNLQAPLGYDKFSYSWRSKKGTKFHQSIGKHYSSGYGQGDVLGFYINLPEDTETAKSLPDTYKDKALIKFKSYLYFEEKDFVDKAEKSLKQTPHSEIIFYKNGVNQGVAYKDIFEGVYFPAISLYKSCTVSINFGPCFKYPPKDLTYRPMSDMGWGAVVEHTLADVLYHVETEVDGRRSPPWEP
Sequence of RbBP5 (retinoblastoma-binding protein), full length (Q15291 whole entry): as the sequence (Q15291 whole entry, the tested form may be a part) above
T3 sequence (O14686 5382-5537, one chain of several): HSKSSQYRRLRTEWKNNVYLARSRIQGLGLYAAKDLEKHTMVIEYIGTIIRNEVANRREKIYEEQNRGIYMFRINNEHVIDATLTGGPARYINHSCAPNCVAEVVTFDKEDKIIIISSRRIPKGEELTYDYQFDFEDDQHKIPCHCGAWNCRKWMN
T4 sequence (O14686 5382-5537): as the sequence (O14686 5382-5537, one chain of several) above

Compound: Nc1ncnc2c1ncn2[C@@H]1O[C@H](CSCC[C@H](N)C(=O)O)[C@@H](O)[C@H]1O [AdoHcy, S-adenosyl-L-homocysteine]
Ki (SET/WRAD2 complex [1]; [9]): 2.29 ± 0.2 µM
inhibition pattern (SET/WRAD2 complex [1]; [9]): C
α (mixed inhibition model) (SET/WRAD2 complex [1]; [9]): 6.8
Ki (SET/WRAD2 complex [1]; [10]): 4.95 ± 0.62 µM
inhibition pattern (SET/WRAD2 complex [1]; [10]): C
α (mixed inhibition model) (SET/WRAD2 complex [1]; [10]): >1000
inhibition pattern (SET/WRAD2 complex [1]; varied substrate H3_1–21, fixed substrate at 20× KM): no inhibition
Ki (SET/WRAD2 complex [1]; [11]): 5.38 ± 0.41 µM
inhibition pattern (SET/WRAD2 complex [1]; [11]): NC
α (mixed inhibition model) (SET/WRAD2 complex [1]; [11]): 0.56

Compound: Nc1ncnc2c1ncn2[C@@H]1O[C@H](C[C@@H](N)CC[C@H](N)C(=O)O)[C@@H](O)[C@H]1O [sinefungin]
Ki (SET/WRAD2 complex [1]; [10]): 11 ± 0.46 µM
inhibition pattern (SET/WRAD2 complex [1]; [10]): C
α (mixed inhibition model) (SET/WRAD2 complex [1]; [10]): 21.1
Ki (SET/WRAD2 complex [1]; [11]): 10.3 ± 0.79 µM
inhibition pattern (SET/WRAD2 complex [1]; [11]): UC
α (mixed inhibition model) (SET/WRAD2 complex [1]; [11]): 0.16

Kd (hKMT2D SET domain; [WRAD2] 0 nM, [SET] 125 nM): 5.93 ± 1.2 µM
Kd (hKMT2D SET domain; [WRAD2] 0.125 nM, [SET] 125 nM): 4.99 ± 1.5 µM
Kd (hKMT2D SET domain; [WRAD2] 0.5 nM, [SET] 125 nM): 2.93 ± 0.6 µM
Kd (hKMT2D SET domain; [WRAD2] 1 nM, [SET] 125 nM): 1.61 ± 0.58 µM
Kd (hKMT2D SET domain; [WRAD2] 2 nM, [SET] 125 nM): 0.61 ± 0.36 µM
Kd (hKMT2D SET domain; [WRAD2] 4 nM, [SET] 125 nM): 0.65 ± 0.38 µM
Kd (hKMT2D SET domain; [WRAD2] 6.25 nM, [SET] 30 nM): 1.54 ± 0.36 µM
Kd (hKMT2D SET domain; [WRAD2] 10 nM, [SET] 30 nM): 1.42 ± 0.56 µM
Kd (hKMT2D SET domain; [WRAD2] 15 nM, [SET] 30 nM): 0.99 ± 0.3 µM
Kd (hKMT2D SET domain; [WRAD2] 25 nM, [SET] 30 nM, substrate H3_1–21): 0.85 ± 0.48 µM
Kd (hKMT2D SET domain; [WRAD2] 125 nM, [SET] 30 nM): 0.54 ± 0.31 µM
Kd (hKMT2D SET domain; [WRAD2] […], [SET] 125 nM): 5.02 ± 0.68 µM
Kd [2]: 7.63 ± 0.46 µM
Kd [3]: 9 ± 2 µM
Kd (SET/WRAD2 complex [4]; eq 1, substrate Me1H3_1–21, read-out: Kd^(AdoMet)): 3.76 ± 0.49 µM
Kd (SET/WRAD2 complex [4]; eq 1, substrate Me2H3_1–21, read-out: Kd^(AdoMet)): 0.04 µM
Compound: C[S+](CC[C@H](N)C(=O)[O-])C[C@H]1O[C@@H](n2cnc3c(N)ncnc32)[C@H](O)[C@@H]1O (stereo partly drawn) [AdoMet, S-adenosyl-L-methionine]

H3 1-21 affinity (KM) of the SET domain with Ash2L alone, 1:1, 5 μM AdoMet [5]: 2 fold
Kd assigned to Ash2L from the WRAD2 titration of H3 1-21 affinity (steady-state kinetics) [6]: 0.004 µM
Compound: Ash2L (absent small or homoeotic 2-like), full length (from UniProt Q9UBL3 1-628) (natural protein)

Compound: hKMT2D SET domain (Homo sapiens)
Km ([7]; other: 25 nM WRAD2, Ping–Pong model eq 2, substrate H3_1–21): 5.10 ± 0.32 µM
Km ([7]; other: [WRAD2] 0 nM, [SET] 125 nM, eq 1): 5.38 ± 1.0 µM
Km ([7]; other: [WRAD2] 0.125 nM, [SET] 125 nM, eq 1): 5.48 ± 1.25 µM
Km ([7]; other: [WRAD2] 0.5 nM, [SET] 125 nM, eq 1): 3.61 ± 0.51 µM
Km ([7]; other: [WRAD2] 1 nM, [SET] 125 nM, eq 1): 4.55 ± 0.62 µM
Km ([7]; other: [WRAD2] 2 nM, [SET] 125 nM, eq 1): 4.18 ± 0.50 µM
Km ([7]; other: [WRAD2] 4 nM, [SET] 125 nM, eq 1): 2.36 ± 0.28 µM
Km ([7]; other: [WRAD2] 6.25 nM, [SET] 30 nM, eq 1): 3.07 ± 0.16 µM
Km ([7]; other: [WRAD2] 10 nM, [SET] 30 nM, eq 1): 3.89 ± 0.33 µM
Km ([7]; other: [WRAD2] 15 nM, [SET] 30 nM, eq 1): 4.77 ± 0.22 µM
Km ([7]; other: [WRAD2] 25 nM, [SET] 30 nM, eq 1, substrate H3_1–21): 4.65 ± 0.34 µM
Km ([7]; other: [WRAD2] 125 nM, [SET] 30 nM, eq 1): 4.71 ± 0.25 µM
Km ([7]; other: [WRAD2] […], [SET] 125 nM, eq 1): 6.28 ± 0.65 µM

Compound: SET/WRAD2 complex (Homo sapiens)
Km ([8]; substrate Me1H3_1–21): 5.22 ± 0.32 µM
Km ([8]; substrate Me2H3_1–21): 3.48 ± 0.36 µM

Kd assigned to RbBP5 from the WRAD2 titration of kcat (steady-state kinetics) [6]: 0.012 µM
Compound: RbBP5 (retinoblastoma-binding protein), full length (from UniProt Q15291 1-538) (natural protein)
